# In patent publication EP4745118A1, “HYDROXAMIC ACID COMPOUND OR PHARMACEUTICALLY ACCEPTABLE SALT THEREOF, AND USE THEREOF AND PREPARATION METHOD THEREFOR” (priority 2023, dated 2025):
# Read-outs that look alike come from different tables or passages of the source.
# Experiments:
# Citrobacter freundii = assay: In vitro antibacterial activity, agar dilution method (MIC); format: cell-based
# Method in brief: (§1)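 Growth inhibition on drug-containing agar read after 18 h at 35°C defined the MIC (lowest concentration, no visible growth). Inoculum of ~10^4 CFU/spot came from 0.5 McFarland suspensions diluted 10-fold.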
# Enterobacter aerogenes = assay: as above; format: cell-based; settings: Klebsiella aerogenes
# Method in brief: as §1
# Escherichia coli = assay: as above; format: cell-based; settings: Escherichia coli, agar dilution, 35°C
# Method in brief: as §1
# Klebsiella pneumoniae = assay: as above; format: cell-based; settings: Klebsiella pneumoniae, agar dilution, 35°C
# Method in brief: as §1
# Pantoea agglomerans = assay: as above; format: cell-based
# Method in brief: as §1
# Proteus mirabilis = assay: as above; format: cell-based
# Method in brief: as §1
# Proteus vulgaris = assay: as above; format: cell-based
# Method in brief: as §1
# Pseudomonas aeruginosa = assay: as above; format: cell-based
# Method in brief: as §1
# Serratia marcescens = assay: as above; format: cell-based
# Method in brief: as §1
# Enterobacter cloacae = assay: as above; format: cell-based
# Method in brief: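 CLSI agar dilution; inoculum ~10^4 CFU per spot from 0.5 McFarland suspension diluted 10-fold. Plates incubated 35°C for 18 h. MIC taken as lowest drug concentration giving no growth.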
# Shigella flexneri = assay: as above; format: cell-based; settings: ATCC12022, Shigella flexneri ATCC 12022, 35°C, 18 hours, read-out: MIC
# Method in brief: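 Agar dilution per CLSI in MH agar, final drug 0.03–128 µg/mL in twofold steps. About 10^4 CFU spotted per site, 35°C for 18 hours; MIC taken as lowest concentration with no growth.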
# [1] = tested on: Escherichia coli ATCC BAA2469 (CRE, NDM-1-producing); assay: In vivo antibacterial activity, intraperitoneal infection in mice (survival over 7 days); settings: for effective dose of in vivo antibacterial activity: mice with intraperitoneal infection by Escherichia coli ATCC BAA2469, intravenous; for Animal survival rate / Number of surviving animals: mice, one intravenous administration 1 hour post-infection, 7 days; for Number of surviving animals: 5 animals per group
# Protocol: Mice were randomly grouped based on body weight, with 5 mice in each group, regardless of gender. The infectious bacteria was Escherichia coli ATCC BAA2469 (CRE, NDM-1-producing). The test bacterial solution was diluted with 5% high-activity dry yeast. Mice received intraperitoneal injection of 0.5 mL of 100% minimum lethal dose (100% MLD) bacterial solution. One intravenous administration was given at 1 hour post-infection at a dose volume of 10 mL/kg. Animal survival numbers were observed over 7 days, and survival rates were calculated.
# ICR strain mice = assay: Acute toxicity in mice, single tail vein injection; format: in vivo; settings: one week
# Protocol: Healthy ICR strain mice weighing 20-21 g were taken for the experiment, randomly divided into groups of 3 mice per group, regardless of gender. Each compound was administered via a single tail vein injection at a volume of 20 mL/kg. Animal responses were observed immediately postadministration and monitored for one week. The number of animal deaths was recorded and mortality rates calculated.
# [2] = ATCC35218, 18 h, Escherichia coli ATCC 35218 (ESBLs-producing), 18 hours, read-out: MIC
# [3] = 18 h, Klebsiella pneumoniae 18-8 (ESBLs-producing), 18 hours, read-out: MIC
# [4] = ATCC700603, 18 h, Klebsiella pneumoniae ATCC 700603 (ESBLs-producing), 18 hours, read-out: MIC
# [5] = ATCC43864, Citrobacter freundii ATCC 43864, agar dilution, 35°C, 18 hours, read-out: MIC
# [6] = ATCC13048, Enterobacter aerogenes ATCC 13048, agar dilution, 35°C, 18 hours, read-out: MIC
# [7] = 18 h, Escherichia coli 13-43 (mcr-1), 18 hours, read-out: MIC
# [8] = 18 h, Escherichia coli 17-R28 (CRE, NDM-1-producing), 18 hours, read-out: MIC
# [9] = ATCC2469, 18 h, Escherichia coli ATCC 2469 (CRE, NDM-1-producing), 18 hours, read-out: MIC
# [10] = 18 h, Klebsiella pneumoniae 09-20 (mcr-1), 18 hours, read-out: MIC
# [11] = 18 h, Klebsiella pneumoniae 17-R27 (CRE), 18 hours, read-out: MIC
# [12] = ATCCBAA2146, 18 h, Klebsiella pneumoniae ATCC BAA-2146 (CRE, NDM-1-producing), 18 hours, read-out: MIC
# [13] = ATCC27993, Pantoea agglomerans ATCC 27993, agar dilution, 35°C, 18 hours, read-out: MIC
# [14] = ATCC49565, Proteus mirabilis ATCC 49565, agar dilution, 35°C, 18 hours, read-out: MIC
# [15] = ATCC29905, Proteus vulgaris ATCC 29905, agar dilution, 35°C, 18 hours, read-out: MIC
# [16] = Pseudomonas aeruginosa PAO1, agar dilution, 35°C, 18 hours, read-out: MIC
# [17] = ATCC21074, Serratia marcescens ATCC 21074, agar dilution, 35°C, 18 hours, read-out: MIC
# [18] = Enterobacter cloacae CDC1000654 (NDM-1-producing), agar dilution, 35°C, 18 hours, read-out: MIC
Compound,MIC (Escherichia coli; [2]),MIC (Klebsiella pneumoniae; [3]),MIC (Klebsiella pneumoniae; [4]),MIC (Shigella flexneri),effective dose of in vivo antibacterial activity [1],Animal survival rate ([1]; dose 1.5 mg/kg),Number of surviving animals ([1]; dose 1.5 mg/kg),Animal survival rate ([1]; dose 3 mg/kg),Number of surviving animals ([1]; dose 3 mg/kg),Animal survival rate ([1]; dose 6 mg/kg),Number of surviving animals ([1]; dose 6 mg/kg),Mortality rate (ICR strain mice; dose 150 mg/kg),Number of deaths (ICR strain mice; dose 150 mg/kg),MIC (Citrobacter freundii; [5]),MIC (Enterobacter aerogenes; [6]),MIC (Escherichia coli; [7]),MIC (Escherichia coli; [8]),MIC (Escherichia coli; [9]),MIC (Klebsiella pneumoniae; [10]),MIC (Klebsiella pneumoniae; [11]),other results
CC(C)(N)[C@H](NC(=O)c1ccc(C#CC#C[C@@H]2C[C@H]2CO)cc1)C(=O)NO [ACHN-975],0.5 µg/mL,1 µg/mL,4 µg/mL,0.12 µg/mL,> 1.5 mg/kg,0%,0 individuals,60%,3 individuals,100%,5 individuals,100%,3 individuals,–,–,–,–,–,–,–,"MIC (Citrobacter freundii; Citrobacter freundii, ATCC43864, 18 h): 0.5 µg/mL; MIC (Enterobacter aerogenes; ATCC13048, 18 h): 1 µg/mL; MIC (Escherichia coli; 18 h, Escherichia coli 13-43 (mcr-1)): 0.5 µg/mL; MIC (Escherichia coli; 18 h, Escherichia coli 17-R28 (CRE, NDM-1-producing)): 0.5 µg/mL; MIC (Escherichia coli; ATCC2469, 18 h, Escherichia coli ATCC 2469 (CRE, NDM-1-producing), 18 hours): 0.5 µg/mL; MIC (Klebsiella pneumoniae; 18 h, Klebsiella pneumoniae 09-20 (mcr-1)): 1 µg/mL; MIC (Klebsiella pneumoniae; 18 h, Klebsiella pneumoniae 17-R27 (CRE)): 2 µg/mL; MIC (Klebsiella pneumoniae; ATCCBAA2146, 18 h, Klebsiella pneumoniae ATCC BAA-2146 (CRE, NDM-1-producing), 18 hours): 4 µg/mL; MIC (Pantoea agglomerans; Pantoea agglomerans, ATCC27993, 18 h): 4 µg/mL; MIC (Proteus mirabilis; Proteus mirabilis, ATCC49565, 18 h): 2 µg/mL; MIC (Proteus vulgaris; Proteus vulgaris, ATCC29905, 18 h): 0.06 µg/mL; MIC (Pseudomonas aeruginosa; Pseudomonas aeruginosa, PAO1, 18 h): 0.25 µg/mL; MIC (Serratia marcescens; Serratia marcescens, ATCC21074, 18 h): 0.25 µg/mL; MIC (Enterobacter cloacae; Enterobacter cloacae, 18 h): 4 µg/mL; Mortality rate (ICR strain mice; dose 50 mg/kg): 0%; Number of deaths (ICR strain mice; dose 50 mg/kg): 0 individuals; Mortality rate (ICR strain mice; dose 100 mg/kg): 67%; Number of deaths (ICR strain mice; dose 100 mg/kg): 2 individuals"
CO[C@H]1CCC[C@@H]1C#CC#Cc1ccc(C(=O)N[C@H](C(=O)NO)C(C)(C)N)cc1 [A],0.25 µg/mL,0.5 µg/mL,8 µg/mL,0.25 µg/mL,> 3 mg/kg,0%,0 individuals,0%,0 individuals,20%,1 individuals,0%,0 individuals,0.25 µg/mL,0.5 µg/mL,1 µg/mL,0.25 µg/mL,0.12 µg/mL,1 µg/mL,1 µg/mL,MIC (Klebsiella pneumoniae; [12]): 8 µg/mL; MIC (Pantoea agglomerans; [13]): 2 µg/mL; MIC (Proteus mirabilis; [14]): 1 µg/mL; MIC (Proteus vulgaris; [15]): 0.5 µg/mL; MIC (Pseudomonas aeruginosa; [16]): 2 µg/mL; MIC (Serratia marcescens; [17]): 0.25 µg/mL; MIC (Enterobacter cloacae; [18]): 4 µg/mL; Mortality rate (ICR strain mice; dose 200 mg/kg): 100%; Number of deaths (ICR strain mice; dose 200 mg/kg): 3 individuals
"COC[C@@H]1C[C@H]1C#CC#Cc1ccc(C(=O)N[C@H](C(=O)NO)C(C)(C)N)cc1 [Ia, N-(S)-3-amino-1-hydroxyamino-3-methyl-1-oxobutan-2-yl-4-[[(1R,2R)-2-(methoxymethylene)cyclopropyl]but-1,3-diynyl]benzamide]",0.12 µg/mL,0.06 µg/mL,1 µg/mL,0.06 µg/mL,below 1.5 mg/kg,–,–,–,–,–,–,0%,0 individuals,0.25 µg/mL,0.5 µg/mL,0.12 µg/mL,0.12 µg/mL,0.12 µg/mL,0.25 µg/mL,0.5 µg/mL,MIC (Klebsiella pneumoniae; [12]): 1 µg/mL; MIC (Pantoea agglomerans; [13]): 0.5 µg/mL; MIC (Proteus mirabilis; [14]): 0.25 µg/mL; MIC (Proteus vulgaris; [15]): 0.12 µg/mL; MIC (Pseudomonas aeruginosa; [16]): 0.5 µg/mL; MIC (Serratia marcescens; [17]): 0.25 µg/mL; MIC (Enterobacter cloacae; [18]): 1 µg/mL; Animal survival rate ([1]; dose 0.35 mg/kg): 0%; Number of surviving animals ([1]; dose 0.35 mg/kg): 0 individuals; Animal survival rate ([1]; dose 1.4 mg/kg): 80%; Number of surviving animals ([1]; dose 1.4 mg/kg): 4 individuals; Mortality rate (ICR strain mice; dose 200 mg/kg): 100%; Number of deaths (ICR strain mice; dose 200 mg/kg): 3 individuals
